Consider ten molecules from US20250042881A1, “CCR6 RECEPTOR MODULATORS” (Idorsia Pharmaceuticals Ltd, priority 2021, published 2025).

The IC50 is the midpoint of a concentration-inhibition curve.

This experiment has as its target T1, human CCR6 (Homo sapiens, UniProt P51684).
T1 construct: expressed in transfected cells; host or cells: HEK-293
T1 sequence (P51684 1-374): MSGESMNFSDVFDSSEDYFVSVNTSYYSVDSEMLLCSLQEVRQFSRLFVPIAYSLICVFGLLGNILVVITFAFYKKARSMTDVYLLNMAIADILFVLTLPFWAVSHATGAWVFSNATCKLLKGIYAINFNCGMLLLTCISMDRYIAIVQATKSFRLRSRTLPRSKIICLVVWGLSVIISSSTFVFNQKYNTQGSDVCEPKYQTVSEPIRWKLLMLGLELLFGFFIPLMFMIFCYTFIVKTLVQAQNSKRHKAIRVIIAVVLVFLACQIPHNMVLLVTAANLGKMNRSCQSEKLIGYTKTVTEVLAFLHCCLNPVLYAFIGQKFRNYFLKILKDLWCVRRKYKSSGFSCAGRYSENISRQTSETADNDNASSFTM
In words: FLIPR assay: inhibition of CCL20-induced calcium signal in HEK-293 cells expressing human CCR6. Format: cell-based. The note with it: engineered HEK-293 cells expressing human CCR6; agonist CCL20 10 nM; 30 min preincubation; Fluo-8-AM; mean values if determined several times. As to the method:
FLIPR assay: The bioactivity of compounds is tested in a fluorometric imaging plate reader (FLIPR: Molecular Devices) using engineered HEK-293 cells expressing the human CCR6 (GenBank: AY242126). Frozen cells are plated on Poly-L-Lysine precoated 384-well plates 2 days prior to bioassay in DMEM medium supplemented with 10% FCS and 1% Penicillin-Streptomycin. At the day of bioassay, cell supernatant is discarded and cells are dye loaded for 30 minutes at room temperature in the dark with Fluo-8-AM (Focus Biomolecules) in Hanks Balanced Salt Solution (Gibco), buffered with 20 mM Hepes at pH 6.75 and supplemented with 0.05% BSA. This buffer, but lacking the dye, is also used for washing and compound dilution steps (assay buffer). Cells are washed free of excess dye with a wash-station (Biotek), leaving 40 microliter of assay buffer at the end. Cells were incubated for 15 minutes at room temperature in the dark, before adding compounds. Stock solutions of test compounds are made up at a concentration of 10 mM in DMSO, and serially diluted first in DMSO and then transferred in assay buffer to concentrations required for inhibition dose response curves. After a 45 minute incubation period in assay buffer at room temperature, 10 microliters of each compound dilution are transferred from a compound plate to the plate containing the recombinant cells in the FLIPR instrument according to the manufacturer's instructions. After cells and compounds were preincubated for 30 minutes at room temperature in the dark, 10 microliter agonist CCL20 (Peprotech) at a final concentration of 10 nM is added, again using the FLIPR instrument. Changes in fluorescence are monitored before and after addition of the test compounds and agonist. Emission peak values above base level after CCL20 addition are exported after base line subtraction. The calculated IC50 values may fluctuate depending on the daily assay performance. Fluctuations of this kind are known to those skilled in the art. In the case where IC50 values have been determined several times for the same compound, mean values are given.
`CC(C)c1ccc([C@](O)(c2cncc(-c3nc(C4CCN(C(=O)CO)CC4)n(C(C)C)n3)c2)C2(C)CN(C)C2)cc1` [Example 44, 1-[4-(5-{5-[(R)-(1,3-Dimethyl-azetidin-3-yl)-hydroxy-(4-isopropyl-phenyl)-methyl]-pyridin-3-yl}-2-isopropyl-2H-[1,2,4]triazol-3-yl)-piperidin-1-yl]-2-hydroxy-ethanone]: the IC50 was found to be 199 nM.
For `CC(C)c1ccc([C@](O)(c2cncc(-c3nc(C(C)(C)O)n(C(C)C)n3)c2)C2(C)CN(C)C2)cc1` [Example 27, 2-(5-{5-[(R)-(1,3-Dimethyl-azetidin-3-yl)-hydroxy-(4-isopropyl-phenyl)-methyl]-pyridin-3-yl}-2-isopropyl-2H-[1,2,4]triazol-3-yl)-propan-2-ol] the value was 59.5 nM; for `CC(C)c1ccc([C@](O)(c2cncc(-c3nc(C4(C)CCNC(=O)C4)n(C(C)C)n3)c2)C2(C)CN(C)C2)cc1` (stereo partly drawn) [Example 45, 4-(5-{5-[(R)-(1,3-Dimethyl-azetidin-3-yl)-hydroxy-(4-isopropyl-phenyl)-methyl]-pyridin-3-yl}-2-isopropyl-2H-[1,2,4]triazol-3-yl)-4-methyl-piperidin-2-one], 193 nM.
In the case of `CC(C)c1ccc([C@](O)(c2cncc(-c3nc(C4CCOCC4)n(C4CCCC4)n3)c2)C2(C)CN(C)C2)cc1` [Example 20, (R)-{5-[1-Cyclopentyl-5-(tetrahydro-pyran-4-yl)-1H-[1,2,4]triazol-3-yl]-pyridin-3-yl}-(1,3-dimethyl-azetidin-3-yl)-(4-isopropyl-phenyl)-methanol], the IC50 stood at 37.3 nM.
The same measure for `CC(=O)N[C@H]1CC[C@H](c2nc(-c3cncc([C@@](O)(c4ccc(C(C)C)cc4)C4(C)CN(C)C4)c3)nn2C(C)C)CC1` [Example 43, N-[4-(5-{5-[(R)-(1,3-Dimethyl-azetidin-3-yl)-hydroxy-(4-isopropyl-phenyl)-methyl]-pyridin-3-yl}-2-isopropyl-2H-[1,2,4]triazol-3-yl)-trans-cyclohexyl]-acetamide]: 115 nM.
For `CC(C)c1ccc([C@](O)(c2cncc(-c3nc(C4(O)CCOCC4)n(C(C)C)n3)c2)C2(C)CN(C)C2)cc1` [Example 31, 4-(5-{5-[(R)-(1,3-Dimethyl-azetidin-3-yl)-hydroxy-(4-isopropyl-phenyl)-methyl]-pyridin-3-yl}-2-isopropyl-2H-[1,2,4]triazol-3-yl)-tetrahydro-pyran-4-ol], the IC50 worked out at 86.3 nM.
Consider `CC(C)c1ccc([C@](O)(c2cncc(-c3nc(C4CCOCC4)n(C4CC4)n3)c2)C2(C)CN(C3CC3)C2)cc1` [Example 49, (R)-(1-Cyclopropyl-3-methyl-azetidin-3-yl)-{5-[1-cyclopropyl-5-(tetrahydro-pyran-4-yl)-1H-[1,2,4]triazol-3-yl]-pyridin-3-yl}-(4-isopropyl-phenyl)-methanol], for which the IC50 worked out at 55.8 nM.
As for `CC(C)c1ccc([C@](O)(c2cncc(-c3nc(C(C)(C)O)n(C4CC4)n3)c2)C2(C)CNC2)cc1` [Example 37, 2-(2-Cyclopropyl-5-{5-[(R)-hydroxy-(4-isopropyl-phenyl)-(3-methyl-azetidin-3-yl)-methyl]-pyridin-3-yl}-2H-[1,2,4]triazol-3-yl)-propan-2-ol], the IC50 was 104 nM.
For `COCCn1nc(-c2cncc([C@@](O)(c3ccc(C(C)C)cc3)C3(C)CN(C)C3)c2)nc1C1CCOCC1` [Example 48, (R)-(1,3-Dimethyl-azetidin-3-yl)-(4-isopropyl-phenyl)-{5-[1-(2-methoxy-ethyl)-5-(tetrahydro-pyran-4-yl)-1H-[1,2,4]triazol-3-yl]-pyridin-3-yl}-methanol] the value was 170 nM; for `CC(C)c1ccc([C@](O)(c2cncc(-c3nc(C4CCOCC4)n(C4CC4)n3)c2)C2(C)CN(C)C2)cc1` [Example 14, (R)-{5-[1-Cyclopropyl-5-(tetrahydro-pyran-4-yl)-1H-[1,2,4]triazol-3-yl]-pyridin-3-yl}-(1,3-dimethyl-azetidin-3-yl)-(4-isopropyl-phenyl)-methanol], 118 nM.
